Measured values from ChEMBL document CHEMBL4152230, “Discovery of N-{3-[(ethanimidoylamino)methyl]benzyl}-l-prolinamide dihydrochloride: A new potent and selective inhibitor of the inducible nitric oxide synthase as a promising agent for the therapy of malignant glioma” (Eur J Med Chem, 2018).
The source made the active and inactive calls. The rule behind the calls is not given here.

Key:
[1] = biological target: T1, Nitric oxide synthase, inducible (Mus musculus, UniProt P29477); test: Inhibition of recombinant mouse iNOS using [3H]L-arginine as substrate preincubated for 15 mins followed by NADPH addition measured after 20 mins in presence of FMN/FAD by liquid scintillation counting method
T1 sequence (P29477 whole entry): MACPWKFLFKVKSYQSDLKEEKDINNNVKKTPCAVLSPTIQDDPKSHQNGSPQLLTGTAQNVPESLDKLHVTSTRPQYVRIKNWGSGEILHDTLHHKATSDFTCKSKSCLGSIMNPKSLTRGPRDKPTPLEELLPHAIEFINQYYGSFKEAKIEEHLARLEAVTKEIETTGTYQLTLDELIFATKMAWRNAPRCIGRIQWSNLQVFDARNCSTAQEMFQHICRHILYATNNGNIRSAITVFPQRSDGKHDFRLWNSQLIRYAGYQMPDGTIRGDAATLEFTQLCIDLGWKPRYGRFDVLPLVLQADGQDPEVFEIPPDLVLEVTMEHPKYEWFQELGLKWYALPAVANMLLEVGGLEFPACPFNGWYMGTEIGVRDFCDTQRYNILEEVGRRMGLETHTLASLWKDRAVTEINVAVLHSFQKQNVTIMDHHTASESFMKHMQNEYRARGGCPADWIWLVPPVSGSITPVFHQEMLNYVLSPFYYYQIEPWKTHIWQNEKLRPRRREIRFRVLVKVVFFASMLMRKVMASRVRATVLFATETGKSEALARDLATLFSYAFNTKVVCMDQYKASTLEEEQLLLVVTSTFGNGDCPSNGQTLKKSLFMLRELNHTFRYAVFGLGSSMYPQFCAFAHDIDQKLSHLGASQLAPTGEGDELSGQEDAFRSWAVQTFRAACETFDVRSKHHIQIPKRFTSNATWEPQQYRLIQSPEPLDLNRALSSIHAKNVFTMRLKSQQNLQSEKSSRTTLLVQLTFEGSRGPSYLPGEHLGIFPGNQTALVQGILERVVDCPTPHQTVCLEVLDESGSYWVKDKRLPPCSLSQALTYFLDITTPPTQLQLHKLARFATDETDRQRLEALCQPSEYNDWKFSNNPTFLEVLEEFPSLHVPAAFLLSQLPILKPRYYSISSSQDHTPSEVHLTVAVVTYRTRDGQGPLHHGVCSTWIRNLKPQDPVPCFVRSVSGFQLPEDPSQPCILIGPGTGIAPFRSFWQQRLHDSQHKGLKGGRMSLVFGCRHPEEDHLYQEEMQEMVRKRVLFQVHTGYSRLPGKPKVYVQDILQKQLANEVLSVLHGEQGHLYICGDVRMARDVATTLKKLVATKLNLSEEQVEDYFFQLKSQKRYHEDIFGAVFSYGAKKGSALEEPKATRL

[2] = Selectivity index, ratio of IC50 for recombinant bovine eNOS to IC50 for recombinant mouse iNOS
Nitric oxide synthase 3 = biological target: T2, Nitric oxide synthase 3 (Bos taurus, UniProt P29473); test: Inhibition of recombinant bovine eNOS using [3H]L-arginine as substrate preincubated for 15 mins followed by NADPH addition measured after 20 mins in presence of FMN/FAD by liquid scintillation counting method
T2 sequence (P29473 whole entry): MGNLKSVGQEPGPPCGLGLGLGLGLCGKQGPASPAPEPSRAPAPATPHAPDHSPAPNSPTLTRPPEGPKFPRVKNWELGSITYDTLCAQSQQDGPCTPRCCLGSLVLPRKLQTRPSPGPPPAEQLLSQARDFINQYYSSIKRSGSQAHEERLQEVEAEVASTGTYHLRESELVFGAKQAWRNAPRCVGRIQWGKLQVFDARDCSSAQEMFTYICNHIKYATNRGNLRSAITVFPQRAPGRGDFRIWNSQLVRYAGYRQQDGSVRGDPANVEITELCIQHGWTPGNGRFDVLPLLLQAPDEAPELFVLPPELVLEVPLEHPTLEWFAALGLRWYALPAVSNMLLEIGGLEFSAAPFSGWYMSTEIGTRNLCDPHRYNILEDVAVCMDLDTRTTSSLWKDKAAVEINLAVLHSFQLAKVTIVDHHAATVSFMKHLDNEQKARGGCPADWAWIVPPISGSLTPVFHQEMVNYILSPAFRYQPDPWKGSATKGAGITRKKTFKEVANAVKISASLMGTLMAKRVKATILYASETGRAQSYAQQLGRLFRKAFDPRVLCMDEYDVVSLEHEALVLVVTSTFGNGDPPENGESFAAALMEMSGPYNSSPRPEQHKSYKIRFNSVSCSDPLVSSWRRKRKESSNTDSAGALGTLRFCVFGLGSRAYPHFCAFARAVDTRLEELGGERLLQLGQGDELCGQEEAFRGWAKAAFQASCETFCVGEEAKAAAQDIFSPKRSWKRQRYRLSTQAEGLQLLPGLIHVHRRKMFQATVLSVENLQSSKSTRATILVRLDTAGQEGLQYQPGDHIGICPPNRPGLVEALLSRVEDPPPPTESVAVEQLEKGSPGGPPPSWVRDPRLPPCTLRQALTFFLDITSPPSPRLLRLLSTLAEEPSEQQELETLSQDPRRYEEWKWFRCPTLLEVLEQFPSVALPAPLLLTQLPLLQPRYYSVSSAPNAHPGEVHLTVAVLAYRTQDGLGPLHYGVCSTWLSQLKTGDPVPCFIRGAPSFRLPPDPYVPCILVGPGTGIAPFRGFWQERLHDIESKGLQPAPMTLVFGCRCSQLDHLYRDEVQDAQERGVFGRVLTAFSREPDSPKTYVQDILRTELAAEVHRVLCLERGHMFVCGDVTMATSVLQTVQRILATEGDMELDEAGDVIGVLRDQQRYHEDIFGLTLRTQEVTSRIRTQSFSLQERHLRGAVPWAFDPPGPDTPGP

[3] = biological target: Nitric oxide synthase, inducible (Rattus norvegicus) (UniProt Q06518); test: Ex vivo inhibition of iNOS in mesenteric vascular arteries isolated from LPS-induced septic shock Sprague-Dawley rat model assessed as increase in noradrenaline-mediated vasoconstriction by measuring changes in perfusion pressure at 100 uM preincubated for 30 mins followed by noradrenaline treatment
Chain of Nitric oxide synthase, inducible (Rattus norvegicus) (Q06518 whole entry, the tested form may be a part): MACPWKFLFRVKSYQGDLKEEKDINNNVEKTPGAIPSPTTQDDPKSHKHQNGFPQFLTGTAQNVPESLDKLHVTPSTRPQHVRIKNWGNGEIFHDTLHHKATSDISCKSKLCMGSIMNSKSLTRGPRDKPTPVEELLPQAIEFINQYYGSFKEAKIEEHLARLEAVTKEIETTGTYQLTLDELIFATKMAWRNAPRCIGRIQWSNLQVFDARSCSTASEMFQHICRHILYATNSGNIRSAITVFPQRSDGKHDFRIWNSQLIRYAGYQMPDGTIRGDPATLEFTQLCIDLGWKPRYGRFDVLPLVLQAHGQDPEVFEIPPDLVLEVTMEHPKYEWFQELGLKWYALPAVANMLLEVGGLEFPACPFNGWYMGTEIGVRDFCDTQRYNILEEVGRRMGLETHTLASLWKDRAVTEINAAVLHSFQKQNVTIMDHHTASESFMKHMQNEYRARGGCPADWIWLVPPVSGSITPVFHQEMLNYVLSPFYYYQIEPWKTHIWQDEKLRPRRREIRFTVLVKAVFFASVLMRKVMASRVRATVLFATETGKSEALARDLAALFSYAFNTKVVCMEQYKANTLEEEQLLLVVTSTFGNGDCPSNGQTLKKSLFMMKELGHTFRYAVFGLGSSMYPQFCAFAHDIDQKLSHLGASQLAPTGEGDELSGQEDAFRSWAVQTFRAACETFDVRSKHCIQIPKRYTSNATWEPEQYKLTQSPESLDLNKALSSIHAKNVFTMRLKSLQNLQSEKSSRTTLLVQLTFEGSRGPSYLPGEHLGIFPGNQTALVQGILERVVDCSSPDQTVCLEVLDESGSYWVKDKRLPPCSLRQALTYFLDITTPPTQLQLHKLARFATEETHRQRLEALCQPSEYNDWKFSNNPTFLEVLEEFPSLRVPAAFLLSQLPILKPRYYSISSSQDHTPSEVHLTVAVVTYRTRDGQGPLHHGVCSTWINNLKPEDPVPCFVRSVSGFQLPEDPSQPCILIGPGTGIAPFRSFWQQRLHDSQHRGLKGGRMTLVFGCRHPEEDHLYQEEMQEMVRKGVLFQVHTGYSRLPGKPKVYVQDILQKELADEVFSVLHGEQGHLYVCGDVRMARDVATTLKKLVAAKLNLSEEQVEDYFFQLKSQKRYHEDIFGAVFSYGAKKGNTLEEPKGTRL

C6 [4] = test: Cytotoxicity against rat C6 cells assessed as cell proliferation at 1 mM after 24 hrs by MTT assay relative to control; assay type: functional; conditions: C6, 24 h, read-out: Activity
[5] = Cytotoxicity against rat CTX/TNA2 cells assessed as inhibition of cell proliferation at 1.5 mM after 24 hrs by MTT assay relative to control; assay type: cell-based
C6 [6] = test: Cytotoxicity against rat C6 cells assessed as inhibition of cell proliferation after 24 to 48 hrs by MTT assay; assay type: functional, cell-based
C6 [7] = test: Cytotoxicity against rat C6 cells assessed as cell proliferation at 0.75 mM after 72 hrs by MTT assay relative to control; assay type: functional; conditions: C6, 72 h, read-out: Activity
C6 [8] = test: Cytotoxicity against rat C6 cells assessed as cell proliferation at 2 mM after 24 hrs by MTT assay relative to control; assay type: functional; conditions: C6, 24 h, read-out: Activity
[9] = Cytotoxicity against rat CTX/TNA2 cells assessed as inhibition of cell proliferation up to 72 hrs by MTT assay; assay type: cell-based
C6 [10] = test: Cytotoxicity against rat C6 cells assessed as cell proliferation at 1.5 mM after 24 hrs by MTT assay relative to control; assay type: functional; conditions: C6, 24 h, read-out: Activity
[11] = Cytotoxicity against rat CTX/TNA2 cells assessed as inhibition of cell proliferation at 2 mM after 24 hrs by MTT assay relative to control; assay type: cell-based
C6 [12] = test: Cytotoxicity against rat C6 cells assessed as cell proliferation at 0.5 mM after 48 hrs by MTT assay relative to control; assay type: functional; conditions: C6, 48 h, read-out: Activity
C6 [13] = test: Cytotoxicity against rat C6 cells assessed as cell proliferation up to 2 mM after 48 hrs by MTT assay relative to control; assay type: functional

Structure (SMILES)	IC50 [1]	Ratio IC50 [2]	IC50 (Nitric oxide synthase 3)	further results
CC(=N)NCc1cccc(CNC(=O)[C@@H](N)CCCNC(=N)N)c1	0.45 µM	> 2220	> 1000 µM	
CC(=N)NCc1cccc(CNC(=O)[C@@H](N)Cc2ccc(O)cc2)c1	> 10 µM			
CC(=N)NCc1cccc(CNC(=O)[C@H](C)N)c1	0.276 µM	> 3600	> 1000 µM	
CC(=N)NCc1cccc(CNC(=O)[C@@H](N)CC(N)=O)c1	> 10 µM			
COC(=O)[C@@H](N)CCCNC(=N)N[N+](=O)[O-]				inhibition [3]: Active
CC(=N)NCc1cccc(CNC(=O)[C@@H](N)CO)c1	> 10 µM			
CC(=N)NCc1cccc(CNC(=O)[C@@H](N)CCCCN)c1	0.446 µM	473	211 µM	
CC(=N)NCc1cccc(CNC(=O)[C@@H](N)Cc2c[nH]c3ccccc23)c1	> 10 µM			
CC(=N)NCc1cccc(CNC(=O)[C@@H](N)CC(=O)O)c1	1.02 µM	323	331 µM	
CC(=N)NCc1cccc(CNC(=O)[C@@H](N)Cc2cnc[nH]2)c1	0.534 µM	> 1870	> 1000 µM	
CC(=N)NCc1cccc(CN)c1 [1400W]				growth at 1000 µM (C6 [4]): 83.2%; inhibition at 24 h, 1500 µM [5]: ≤ 67.4%; inhibition (C6 [6]): Dose-dependent effect; growth at 750 µM (C6 [7]): 64.6%; growth at 2000 µM (C6 [8]): 55.2%; Activity [9]: Dose-dependent effect; growth at 1500 µM (C6 [10]): 70.6%; inhibition at 24 h, 2000 µM [11]: 69.2%; growth at 500 µM (C6 [12]): 68.9%; Activity (C6 [13]): 35.66%
